Results on two molecules are retold here after US20240139149A1, “THERAPEUTIC USES OF UROLITHIN DERIVATIVES” (Vandria SA, priority 2022, published 2024).

Holding throughout (format): cell-based
In experiment [1] the test system is cortical neurons and microglial cells injured with Aβ1-42. Put plainly: Rat primary culture of cortical neurons and microglial cells injured with Aβ1-42. As for the experimental part:
Pregnant female rat (Wistar) of 15 days of gestation were killed using a deep anesthesia with CO2 chamber and a cervical dislocation. Fetuses were collected and immediately placed in ice-cold L15 Leibovitz medium with a 2% penicillin (10,000 U/mL) and streptomycin (10 mg/mL) solution (PS) and 1% bovine serum albumin (BSA). Cortex were specifically dissected and then were treated for 20 min at 37° C. with a trypsin-EDTA solution at a final concentration of 0.05% trypsin and 0.02% EDTA. The dissociation was stopped by addition of Dulbecco's modified Eagle's medium (DMEM) with 4.5 g/L of glucose, containing DNAse I grade II (final concentration 0.5 mg/mL) and 10% fetal calf serum (FCS). Cells were mechanically dissociated by three forced passages through the tip of a 10-mL pipette. Cells were then centrifuged at 515×g for 10 min at 4° C. The supernatant was discarded, and the pellet was resuspended in a defined culture medium consisting of Neurobasal medium with a 2% solution of B27 supplement, 2 mmol/liter of L-glutamine, 2% of PS solution, 10 ng/mL of brain-derived neurotrophic factor (BDNF), 2% of heat-inactivated horse serum, 2% of heat-inactivated FCS, 1 g/L of glucose, 1 mM of sodium pyruvate, and 100 μM of non-essential amino acids. The presence of serum in the medium allows the growth of the microglial cells. Viable cells were counted in a Neubauer cytometer, using the trypan blue exclusion test.
The cells were seeded at a density of 45 000 per well in 96-well plate precoated with poly-L-lysine and were cultured at 37° C. in an air (95%)—CO2 (5%) incubator. The medium was changed every 2 days.
On day 11 of culture, the compounds were dissolved in the appropriate vehicle and pre-incubated with the primary cortical neurons for one hour (1 h), before Aβ1-42 exposure.
On day 11 of culture, the cortical neurons were injured with the AP 1-42 peptide. AP 1-42 peptide was dissolved in the defined culture medium mentioned above, at an initial concentration of 20 μM. The solution was gently agitated for 3 days at 37° C. in the dark and immediately used after being properly diluted in culture medium to the concentration used (5 μM, 0.5 μM oligomers precisely evaluated by automatic WB). The AP 1-42 solution was applied on the culture at […] (0.5 μM oligomers, AβO), in presence of the compound, for 72 hours.
72 hours after the application of Aβ, the cell culture supernatant was removed. Cells were then washed with phosphate-buffered saline (PBS) and fixed with a cold solution of ethanol (95%) and acetic acid (5%) for 5 min at −20° C. After two washing steps with cold PBS, cells permeabilized and unspecific binding sites were blocked with a solution of PBS containing 0.1% of saponin and 1% of FCS, for 15 min at RT. Cells were incubated for 2 hours with: • a) Monoclonal anti-MAP2 antibody produced in mouse at dilution of 1/400 in PBS containing 1% FCS, 0.1% saponin, for 2 hours at room temperature. • b) Rabbit polyclonal antibody anti-SIRP alpha/CD172a (OX-41) at dilution of 1/400 in PBS containing 1% fetal calf serum and 0.1% of saponin (this antibody stains specifically the microglia and will allow to evaluate the activation of the microglial cells).
For each condition, 30 pictures (representative of the whole well area) were automatically taken using ImageXpress® (Molecular Devices) at 20× magnification using the same acquisition parameters. From images, the analyses were automatically performed by MetaXpress® (Molecular Devices). The following read-outs were measured: • Total neuron survival (number of MAP-2(+) neurons), • Total length of neurite network of MAP-2(+) neurons (in μm) • Total area of activated microglia (area of OX-41 signal, in μm^2)
All values are expressed as mean+/−SEM (standard error of the mean). Statistical analysis was performed by one-way ANOVA followed by Fisher's LSD test, with GraphPad Prism. p<0.05 was considered significant.

A further experiment deals with mouse T lymphocytes. Put plainly: Mitochondrial content (Mitotracker positive cells) in mouse T lymphocytes. The note with it: 2 μM, 72 h. As for the experimental part: Splenic murine T cells were isolated from mice aged 6-20 weeks by negative selection with EasySep mouse T cell isolation kit (Stem cell) according to the manufacturer's instructions. T cell activation was initiated using CD3/CD28 activation beads (11456D; ThermoFisher Scientific) at a ratio of 25 μl dynabeads per 0.5×10^6 T-cells. Cells were activated with test compounds at 2 μM or DMSO in T cell activation Medium (RPMI (ThermoFisher Scientific) 10% FBS (South America origin), 10 mM Hepes (Sigma), 1× Non-Essential Amino Acid, 1 mM Sodium Pyruvate, 50 μM β-Mercaptoethanol, 100 U/ml penicillin, 100 μg/ml streptomycin and 2 mM Glutamax (ThermoFisher Scientific) for 72 h. For subsequent analysis, activating beads were magnetically removed prior staining.
For flow cytometric analysis of mitochondria 500 μl of Mitotracker Red (200 nM; ThermoFisher) was applied followed by surface staining.
Cell doublets and cells debris were excluded from the analysis by gating FSC-A vs FSC-H followed by SSC-A vs SSC-H dot plots and FSC-A vs SSC-A dot plots, respectively. eFluor 780 highly positive cells, i.e, dead cells, were gated out of the analysis. Data was acquired on Canto II (BD), Fortessa (BD) and Aurora (Cytek) cytometers and analyzed with FlowJo.

A further experiment deals with splenic murine T cells. The experiment is described as follows: Murine T cells stimulated with αCD3/αCD28 in presence of UA. The note with it: ICG001 10 μM plus UA 50 μM, 48 h. As for the experimental part: Splenic murine T cells were isolated from mice aged 6-20 weeks by negative selection with EasySep mouse T cell isolation kit (Stem cell) according to the manufacturer's instructions. To monitor T cell proliferation, purified T cells were loaded with CellTrace Violet (C34557 ThermoFisher Scientific). T cell activation was initiated using αCD3/CD28 activation beads (11456D; ThermoFisher Scientific) at a ratio of 25 μl dynabeads per 0.5×106 T-cells. Cells were activated with 25-50 μM Urolithin A (Tocris) or DMSO in T cell activation Medium (RPMI (ThermoFisher Scientific) 10% FBS (South America origin), 10 mM Hepes (Sigma), 1×Non-Essential Amino Acid, 1 mM Sodium Pyruvate, 50 µM β-Mercaptoethanol, 100 U/mL penicillin, 100 μg/mL streptomycin and 2 mM Glutamax (ThermoFisher Scientific) for the indicated durations. In selected experiments, cells were stimulated in the presence of inhibitors, namely TCFli (ICG-001; SelleckChem; […]) and PGC-lai (SR-18292, Sigma-Aldrich; […]). For subsequent analysis, activating beads were magnetically removed prior antibody staining. For human T cells, peripheral blood mononuclear cells were purified with a Ficoll-Paque (GE healthcare) gradient. T cells were enriched with EasySep Human T Cell Isolation Kit (StemCell) and activated with dynabead Human T-Activator CD3/CD28 for T Cell Expansion and Activation Kit (11131D; ThermoFisher Scientific), similar to murine T cell stimulation. When the subsequent activation and expansion of CAR T cells was studied, plates were coated with 1 μg/mL anti-human CD3 (αCD3; clone OKT3) and thawed PBMC were cultivated with […] anti-human CD28 (αCD28; 15E8, both Miltenyi Biotec) containing media for three days. (NutriT media (4Cell® Nutri-T media (Sartorius) containing 0.5% penicillin/streptomycin) supplemented with IL-7 (25 U/mL) and IL-15 […] (all Miltenyi Biotec)).
Tumors were minced and digested with Tumor & Tissue Dissociation Reagent (BD Horizon) for 30 min. The remaining organ pieces were filtered through a 70 µm cell strainer. Cells were then washed with PBS 1% BSA and 2 mM EDTA. Immune cells were enriched on a 30%/40%/75% Percoll gradient after a 1700 rpm 17 min centrifugation. Then, tumor immune filtrates or activated T cells were stained with Fixable Viability Dye-eF780 (65-0865-14; eBioscience), αCD45-FITC (30-F11; 11-0451-85; eBioscience), αCD11b-BV650 (M1/70; 56340; BD) α-CD11c-BV785 (HL3; 563735; BD), aLy6G-BV605 (53-6.7; 563005; BD), aLy6C-AF700 (HK1.4; 128024; Biolegend), aF4/80-PE (BM8; 12-4801-82, eBioscience), aPD-L1-PECy7 (MIH5; 25-5982-80, eBioscience); or with Fixable Viability Dye-eF780 (ebioscience), αCD45-BV786 (30-F11; 564225; BD), αCD4-BUV496 (GK1.5; 564667; BD), αCD8-BV605 (100744; Biolegend), aPD1-APC (J43; 17-9985-82; eBioscience), aTIM-3-PECy7 (RMT3-23; 119715; Biolegend), aCTLA4-PE (UC10-4B9; 106305; Biolegend) and aLag3-BV421 (C9B7W; 125221, Biolegend); or with Fixable Viability Dye-eF780 (eBioscience), αCD4-FITC (H129.19; 553650; BD), αCD8-APC (53-6.7; 17-0081-83; eBioscience), αCD44-AF400 (IM7; 103026; Biolegend), αCD62L-BV785 (MEL-14; 104440; Biolegend), αSca-1-PerCP-Cy5.5 (D7; 45-5981-82; eBioscience), αCD95-PE (Jo2; 554258; BD); or with Fixable Viability Dye-eF780 (eBioscience), αCD8-BV650 (53-6.7; 563234; BD), αCD4-BUV496 (GK1.5; 564667; BD), αCD127-APC (A7R34; 17-1271-82; eBioscience), αCD95-FITC (SA367H8;152605; Biolegend), αCD44-AF400 (IM7; 103026; Biolegend), αCD62L-BV785 (MEL-14; 104440; Biolegend), αSca-1-PerCP-Cy5.5 (D7; 45-5981-82; eBioscience) followed by intracellular staining of aTCF1-PE (S33-966; 564217; BD), or PGC-1α (sc-518025; D-5; santa cruz), or aCyclinD1 (MA5-28534, DCS-6; Invitrogen) with transcription factor buffer set kit (BD Biosciences). To study cytokine expression, tumor immune infiltrates were stimulated ex vivo with 20 ng/mL PMA and […] Ionomycin (Sigma) for 3 h in T cell activation medium with Brefeldin A (Biolegend). […]

[2] abbreviates: 125 and 250 nM, Aβ1-42 72 hours.

For the molecule `Cc1cc2c(cc1O)OC(C)(C)c1cc(O)c(C)cc1-2` [117A, 2,6,6,9-tetramethyl-6H-benzo[c]chromene-3,8-diol], in experiment [1], the “microglial activation (conclusion)” value is reported as “significantly reduce” and the “neuroprotection in the inflammatory in vitro model (conclusion)” value is given as “neuroprotective”. In experiment [1] (setting [2]), the “microglial activation (OX-41)” value is reported as “decrease”, the “neurite network of cortical neurons (MAP-2)” value is “significantly protect” and the “survival of cortical neurons (MAP-2)” value is listed as “significantly protect”. For the same molecule, the “increase in the percentage of Mitotracker positive cells vs DMSO” value in the experiment on mouse T lymphocytes stood at 30%. The “percentage of Mitotracker positive cells” value with mouse T lymphocytes (DMSO 44%) came out at 57.3%.

For the molecule `O=C1[C@H](Cc2ccc(O)cc2)N2C(=O)CCN(C(=O)NCc3ccccc3)[C@H]2CN1Cc1cccc2ccccc12` [ICG001], the “UA-induced TSCM formation in presence of TCF-1 inhibitor” value in the experiment on splenic murine T cells is on record as “abrogated”.
